Test: Inhibition of PKCbeta in rat RBL2H3 cells assessed as inhibition of mouse anti-DNP IgE-stimulated beta-hexosaminidase release preincubated for 15 mins followed by mouse anti-DNP IgE stimulation and measured after 3 hrs by 4-nitropheny1-2-acetamide-2-deoxy-beta-glucopyranoside substrate based colorimetric method

SMILES: O=C1O/C(=C(/C(=O)O)c2ccc(O)c(O)c2)C(O)=C1c1ccc(O)c(O)c1
- IC50: 10.4 µM
